# Values of other authors, collected in US7749547B2, “Nutritional composition and method for increasing creatine uptake and retention in skeletal muscle, increasing muscle mass and strength, increasing exercise capacity and for aiding recovery following exercise” (priority 2006, dated 2010).
# What was measured:
# [1] = supplemented rats
# [2] = rodents; reduced food intake, enhanced energy expenditure
# [3] = not given; remark: listed apart in the source
# [4] = supplementation
# [5] = healthy volunteers
compound,measurement,setting,value
"O=C(O)CCCCC1CCSS1 (stereo not drawn) [ALA, Alpha Lipoic Acid]","age-related changes in mitochondrial function, accumulated oxidative damage and metabolic rate",[1],improved
same,body weight,[2],profound weight loss
[Cr] [Chromium],lean mass,clinical,increase lean mass
same,body fat,combined with exercise,reduce body fat
same,high density lipoproteins (HDL),"human, in vivo",increase high density lipoproteins
"CN(CC(=O)O)C(=N)N [Creatine, N-methyl-N-guanyl Glycine]",high-intensity exercise performance,[3]; males and females,improved
same,strength and fatigue,[3]; supplemental Creatine,improve strength and reduce fatigue
same,muscle fiber cross sectional area,[3]; supplementation,increases muscle fiber cross sectional area
same,strength and fat-free mass,"[3]; with resistance training, sedentary females and male football players",increased strength and fat-free mass over a placebo
same,concentration of Creatine in the muscle,[4],increase the concentration of Creatine in the muscle
same,resynthesis of Phosphocreatine,[4],increase in the resynthesis of Phosphocreatine
Isomalt,bowel function and metabolic function,[5],promote healthy bowel function without impairing metabolic function
